Reference: patent US6737383B1, “Herbicidal oxadiazolidines” (priority 1999, dated 2004)

Columns and labels:
bedstraw = test: Test B pre/postemergence bedstraw; format: in vivo, Galium aparine
Procedure, shortened: (§1)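 Test chemicals in a non-phytotoxic solvent mixture with surfactant were sprayed preemergence onto planted seeds and postemergence onto plants 2 to 18 cm tall (1- to 4-leaf stage). After twelve to sixteen days in a greenhouse, injury was visually rated against untreated controls from 0 (no effect) to 10 (complete control).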

blackgrass = test: Test B pre/postemergence blackgrass; format: in vivo, Alopecurus myosuroides
Procedure, shortened: as §1

surinam grass = test: Test B pre/postemergence surinam grass; format: in vivo, Brachiaria decumbens
Procedure, shortened: as §1

corn = test: Test B pre/postemergence corn; format: in vivo, Zea mays
Procedure, shortened: as §1

crabgrass = test: Test B pre/postemergence crabgrass; format: in vivo, Digitaria sanguinalis
Procedure, shortened: as §1

pigweed = test: Test B pre/postemergence pigweed; format: in vivo, Amaranthus retroflexus
Procedure, shortened: as §1

rape = test: Test B pre/postemergence rape; format: in vivo, Brassica napus
Procedure, shortened: as §1

soybean = test: Test B pre/postemergence soybean; format: in vivo, Glycine max
Procedure, shortened: as §1

sugar beet = test: Test B pre/postemergence sugar beet; format: in vivo, Beta vulgaris
Procedure, shortened: as §1

velvetleaf = test: Test B pre/postemergence velvetleaf; format: in vivo, Abutilon theophrasti
Procedure, shortened: as §1

wheat = test: Test B pre/postemergence wheat; format: in vivo, Triticum aestivum
Procedure, shortened: as §1

wild oat = test: Test B pre/postemergence wild oat; format: in vivo, Avena fatua
Procedure, shortened: as §1

purple nutsedge = test: Test B pre/postemergence purple nutsedge; format: in vivo, Cyperus rotundus
Procedure, shortened: as §1

smallflower flatsedge = test: Test B flood test smallflower flatsedge; format: in vivo, Cyperus difformis
Procedure, shortened: (§2)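 Read-out is a visual response score from 0 (no effect) to 10 (complete control), assigned by comparison with untreated controls. Treatment was applied at the 2-leaf stage, and plants stayed in the greenhouse for twelve to sixteen days before scoring.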

duck salad = test: Test B flood test duck salad; format: in vivo, Heteranthera limosa
Procedure, shortened: as §2

[1] = Postemergence, Rate 62 g/ha, scale 0 to 10, 0 is no effect, 10 is complete control
[2] = Postemergence, Rate 125 g/ha, scale of 0 to 10 where 0 is no effect and 10 is complete control
[3] = Postemergence, Rate 250 g/ha, scale of 0 to 10, 0 is no effect, 10 is complete control
[4] = Preemergence, Rate 125 g/ha, scale of 0 to 10 where 0 is no effect and 10 is complete control
[5] = Preemergence, Rate 250 g/ha, scale 0 to 10 (0 no effect, 10 complete control)
[6] = Preemergence, Rate 500 g/ha, scale of 0 to 10 where 0 is no effect and 10 is complete control
[7] = Postemergence, Rate 500 g/ha, scale of 0 to 10 where 0 is no effect and 10 is complete control
[8] = Preemergence, Rate 62 g/ha, scale of 0 to 10 where 0 is no effect and 10 is complete control
[9] = Rate 62 g/ha, flood test species, Pre-emergence, visual evaluation after twelve to sixteen days
[10] = Rate 125 g/ha, under heading Pre-emergence, flood test species, visual evaluation after twelve to sixteen days
[11] = Rate 250 g/ha, Pre-emergence (flood test species), scale 0 to 10, 0 is no effect, 10 is complete control
[12] = Rate 500 g/ha, Pre-emergence section of Table B, 0 to 10 scale (0 no effect, 10 complete control)

CCCCCn1c(=O)on(C(=O)N(c2ccc(F)cc2F)C(C)C)c1=O [Compound 636]
Plant response rating, Bedstraw (bedstraw; [1]): 7
Plant response rating, Bedstraw (bedstraw; [2]): 7
Bedstraw plant response rating (bedstraw; [3]): 9
Bedstraw plant response rating (bedstraw; [4]): 5
Plant response rating, Bedstraw (bedstraw; [5]): 9
Plant response rating, Bedstraw (bedstraw; [6]): 9
Plant response rating, Blackgrass (blackgrass; [1]): 0
Plant response rating, Blackgrass (blackgrass; [2]): 0
Blackgrass plant response rating (blackgrass; [3]): 3
Plant response rating, Blackgrass (blackgrass; [7]): 5
Blackgrass plant response rating (blackgrass; [8]): 2
Blackgrass plant response rating (blackgrass; [4]): 4
Plant response rating, Blackgrass (blackgrass; [5]): 4
Plant response rating, Blackgrass (blackgrass; [6]): 7
Plant response rating, B. signalgrass (surinam grass; [1]): 0
Plant response rating, B. signalgrass (surinam grass; [2]): 0
B. signalgrass plant response rating (surinam grass; [3]): 0
Plant response rating, B. signalgrass (surinam grass; [7]): 3
B. signalgrass plant response rating (surinam grass; [8]): 3
B. signalgrass plant response rating (surinam grass; [4]): 9
Plant response rating, B. signalgrass (surinam grass; [5]): 8
Plant response rating, B. signalgrass (surinam grass; [6]): 9
Plant response rating, Corn (corn; [1]): 2
Plant response rating, Corn (corn; [2]): 2
Corn plant response rating (corn; [3]): 2
Plant response rating, Corn (corn; [7]): 2
Corn plant response rating (corn; [4]): 0
Plant response rating, Corn (corn; [5]): 0
Plant response rating, Corn (corn; [6]): 3
Plant response rating, Crabgrass (crabgrass; [1]): 3
Plant response rating, Crabgrass (crabgrass; [2]): 9
Crabgrass plant response rating (crabgrass; [3]): 9
Plant response rating, Crabgrass (crabgrass; [7]): 9
Crabgrass plant response rating (crabgrass; [8]): 8
Crabgrass plant response rating (crabgrass; [4]): 9
Plant response rating, Crabgrass (crabgrass; [5]): 10
Plant response rating, Crabgrass (crabgrass; [6]): 10
Plant response rating, Redroot pigweed (pigweed; [1]): 0
Plant response rating, Redroot pigweed (pigweed; [2]): 0
Redroot pigweed plant response rating (pigweed; [3]): 6
Redroot pigweed plant response rating (pigweed; [8]): 10
Redroot pigweed plant response rating (pigweed; [4]): 10
Plant response rating, Redroot pigweed (pigweed; [5]): 10
Plant response rating, Redroot pigweed (pigweed; [6]): 10
Plant response rating, Rape (rape; [1]): 2
Plant response rating, Rape (rape; [2]): 6
Rape plant response rating (rape; [3]): 7
Plant response rating, Rape (rape; [7]): 7
Rape plant response rating (rape; [8]): 0
Rape plant response rating (rape; [4]): 2
Plant response rating, Rape (rape; [5]): 7
Plant response rating, Rape (rape; [6]): 10
Plant response rating, Soybean (soybean; [1]): 2
Plant response rating, Soybean (soybean; [2]): 2
Soybean plant response rating (soybean; [3]): 4
Soybean plant response rating (soybean; [8]): 0
Soybean plant response rating (soybean; [4]): 0
Plant response rating, Soybean (soybean; [5]): 0
Plant response rating, Soybean (soybean; [6]): 4
Plant response rating, Sugarbeets (sugar beet; [1]): 2
Plant response rating, Sugarbeets (sugar beet; [2]): 2
Sugarbeets plant response rating (sugar beet; [3]): 5
Sugarbeets plant response rating (sugar beet; [8]): 0
Sugarbeets plant response rating (sugar beet; [4]): 0
Plant response rating, Sugarbeets (sugar beet; [5]): 6
Plant response rating, Sugarbeets (sugar beet; [6]): 7
Plant response rating, Velvetleaf (velvetleaf; [1]): 3
Plant response rating, Velvetleaf (velvetleaf; [2]): 3
Velvetleaf plant response rating (velvetleaf; [3]): 3
Velvetleaf plant response rating (velvetleaf; [8]): 0
Velvetleaf plant response rating (velvetleaf; [4]): 0
Plant response rating, Velvetleaf (velvetleaf; [5]): 2
Plant response rating, Velvetleaf (velvetleaf; [6]): 4
Plant response rating, Wheat (wheat; [1]): 0
Plant response rating, Wheat (wheat; [2]): 0
Wheat plant response rating (wheat; [3]): 0
Wheat plant response rating (wheat; [8]): 0
Wheat plant response rating (wheat; [4]): 0
Plant response rating, Wheat (wheat; [5]): 0
Plant response rating, Wheat (wheat; [6]): 2
Plant response rating, Wild oats (wild oat; [1]): 0
Plant response rating, Wild oats (wild oat; [2]): 0
Wild oats plant response rating (wild oat; [3]): 0
Wild oats plant response rating (wild oat; [8]): 0
Wild oats plant response rating (wild oat; [4]): 0
Plant response rating, Wild oats (wild oat; [5]): 0
Plant response rating, Wild oats (wild oat; [6]): 5
Plant response rating, Nutsedge (purple nutsedge; [1]): 0
Plant response rating, Nutsedge (purple nutsedge; [2]): 0
Nutsedge plant response rating (purple nutsedge; [3]): 0
Plant response rating, Nutsedge (purple nutsedge; [7]): 0
Nutsedge plant response rating (purple nutsedge; [8]): 0
Nutsedge plant response rating (purple nutsedge; [4]): 0
Plant response rating, Nutsedge (purple nutsedge; [5]): 0
Plant response rating, Nutsedge (purple nutsedge; [6]): 10
Plant response rating, S. Flatsedge (0 to 10 scale, 0 is no effect, 10 is complete control) (smallflower flatsedge; [9]): 0
S. Flatsedge plant response rating (0 to 10 scale, 0 is no effect, 10 is complete control) (smallflower flatsedge; [10]): 0
S. Flatsedge plant response rating (smallflower flatsedge; [11]): 0
S. Flatsedge plant response rating (smallflower flatsedge; [12]): 0
Plant response rating, Ducksalad (0 to 10 scale, 0 is no effect, 10 is complete control) (duck salad; [9]): 0
Ducksalad plant response rating (0 to 10 scale, 0 is no effect, 10 is complete control) (duck salad; [10]): 0
Ducksalad plant response rating (duck salad; [11]): 0
Ducksalad plant response rating (duck salad; [12]): 0
